COc1ccc2[nH]cc(CCNC(C)=O)c2c1
solubility (mole fraction)
Details | 278.15 K | 283.15 K | 288.15 K | 293.15 K | 298.15 K | 303.15 K | 308.15 K | 313.15 K | 318.15 K | 323.15 K
in ethanol | 0.00853 | 0.0113 | 0.0151 | 0.02 | 0.0254 | 0.032 | 0.0406 | 0.0527 | 0.0665 | 0.0844
in isobutanol | 0.00406 | 0.00538 | 0.0073 | 0.00972 | 0.0127 | 0.0167 | 0.0212 | 0.0276 | 0.0352 | 0.0441
in methanol | 0.0116 | 0.0158 | 0.0211 | 0.0282 | 0.0357 | 0.0462 | 0.0594 | 0.0757 | 0.0963 | 0.122
in methyl acetate | 0.00303 | 0.00406 | 0.00531 | 0.00688 | 0.0085 | 0.0112 | 0.0144 | 0.0191 | 0.0244 | 0.0306
in n-butanol | 0.00518 | 0.00676 | 0.009 | 0.0118 | 0.0152 | 0.0199 | 0.0257 | 0.0328 | 0.0425 | 0.0536
in n-hexanol | 0.0038 | 0.00497 | 0.00679 | 0.00872 | 0.0114 | 0.0146 | 0.019 | 0.0244 | 0.0308 | 0.0393
in n-pentanol | 0.00515 | 0.00671 | 0.00889 | 0.0114 | 0.0145 | 0.0184 | 0.0233 | 0.0291 | 0.0365 | 0.0444
in n-propanol | 0.00602 | 0.00792 | 0.0108 | 0.0147 | 0.0197 | 0.0254 | 0.0329 | 0.0418 | 0.0538 | 0.0701

Reference: BigSolDB 2.1
